Measured values published in ChEMBL document CHEMBL4507290 (2021).

Assays:
[1] = test system: Tyrosine-protein kinase ABL1 (Homo sapiens), P00519 [H396P]; conditions: Compound concentration 1000.0 nM
[2] = target: Activin receptor type-2A (Homo sapiens) (UniProt P27037); conditions: Compound concentration 1000.0 nM
[3] = test system: ALK tyrosine kinase receptor (Homo sapiens), Q9UM73 [L1196M]; conditions: Compound concentration 1000.0 nM
[4] = target: Mitotic checkpoint serine/threonine-protein kinase BUB1 (Homo sapiens) (UniProt O43683); conditions: Compound concentration 1000.0 nM
[5] = target: Calcium/calmodulin-dependent protein kinase type II subunit beta (Homo sapiens) (UniProt Q13554); conditions: Compound concentration 1000.0 nM
[6] = target: Calcium/calmodulin-dependent protein kinase kinase 1 (Homo sapiens) (UniProt Q8N5S9); conditions: Compound concentration 1000.0 nM
[7] = target: Cyclin-dependent kinase 11B (Homo sapiens) (UniProt P21127); conditions: Compound concentration 1000.0 nM
[8] = target: Death-associated protein kinase 1 (Homo sapiens) (UniProt P53355); conditions: Compound concentration 1000.0 nM
[9] = target: Mitogen-activated protein kinase kinase kinase 12 (Homo sapiens) (UniProt Q12852); conditions: Compound concentration 1000.0 nM
[10] = test system: Epidermal growth factor receptor (Homo sapiens), P00533 [UNDEFINED MUTATION]; conditions: Compound concentration 1000.0 nM
[11] = test system: Epidermal growth factor receptor (Homo sapiens), P00533 [UNDEFINED MUTATION]; conditions: Compound concentration 1000.0 nM; remark: listed apart in the source
[12] = target: Ephrin type-B receptor 4 (Homo sapiens) (UniProt P54760); conditions: Compound concentration 1000.0 nM
[13] = target: Mitogen-activated protein kinase 15 (Homo sapiens) (UniProt Q8TD08); conditions: Compound concentration 1000.0 nM
[14] = target: Tyrosine-protein kinase Fer (Homo sapiens) (UniProt P16591); conditions: Compound concentration 1000.0 nM
[15] = target: Fibroblast growth factor receptor 4 (Homo sapiens) (UniProt P22455); conditions: Compound concentration 1000.0 nM
[16] = target: Vascular endothelial growth factor receptor 1 (Homo sapiens) (UniProt P17948); conditions: Compound concentration 1000.0 nM
[17] = target: Tyrosine-protein kinase FRK (Homo sapiens) (UniProt P42685); conditions: Compound concentration 1000.0 nM
[18] = target: Beta-adrenergic receptor kinase 1 (Homo sapiens) (UniProt P25098); conditions: Compound concentration 1000.0 nM
[19] = target: Glycogen synthase kinase-3 beta (Homo sapiens) (UniProt P49841); conditions: Compound concentration 1000.0 nM
[20] = target: Tyrosine-protein kinase HCK (Homo sapiens) (UniProt P08631); conditions: Compound concentration 1000.0 nM
[21] = target: Hormonally up-regulated neu tumor-associated kinase (Homo sapiens) (UniProt P57058); conditions: Compound concentration 1000.0 nM
[22] = target: Leucine-rich repeat serine/threonine-protein kinase 2 (Homo sapiens) (UniProt Q5S007); conditions: Compound concentration 1000.0 nM
[23] = test system: Leucine-rich repeat serine/threonine-protein kinase 2 (Homo sapiens), Q5S007 [G2019S]; conditions: Compound concentration 1000.0 nM
[24] = target: Dual specificity mitogen-activated protein kinase kinase 6 (Homo sapiens) (UniProt P52564); conditions: Compound concentration 1000.0 nM
[25] = target: Serine/threonine-protein kinase 38 (Homo sapiens) (UniProt Q15208); conditions: Compound concentration 1000.0 nM
[26] = target: Serine/threonine-protein kinase Nek9 (Homo sapiens) (UniProt Q8TD19); conditions: Compound concentration 1000.0 nM
[27] = target: Mitogen-activated protein kinase kinase kinase 14 (Homo sapiens) (UniProt Q99558); conditions: Compound concentration 1000.0 nM
[28] = target: Serine/threonine-protein kinase PAK 6 (Homo sapiens) (UniProt Q9NQU5); conditions: Compound concentration 1000.0 nM
[29] = target: Cyclin-dependent kinase 2 homolog (Plasmodium falciparum (isolate 3D7)) (UniProt P61075); conditions: Compound concentration 1000.0 nM
[30] = target: Serine/threonine-protein kinase N2 (Homo sapiens) (UniProt Q16513); conditions: Compound concentration 1000.0 nM
[31] = test system: Proto-oncogene tyrosine-protein kinase receptor Ret (Homo sapiens), P07949 [V804M]; conditions: Compound concentration 1000.0 nM
[32] = target: Serine/threonine-protein kinase RIO2 (Homo sapiens) (UniProt Q9BVS4); conditions: Compound concentration 1000.0 nM
[33] = target: Rho-associated protein kinase 1 (Homo sapiens) (UniProt Q13464); conditions: Compound concentration 1000.0 nM
[34] = target: Serine/threonine-protein kinase Sgk2 (Homo sapiens) (UniProt Q9HBY8); conditions: Compound concentration 1000.0 nM
[35] = target: Tyrosine-protein kinase Srms (Homo sapiens) (UniProt Q9H3Y6); conditions: Compound concentration 1000.0 nM
[36] = target: Serine/threonine-protein kinase 33 (Homo sapiens) (UniProt Q9BYT3); conditions: Compound concentration 1000.0 nM
[37] = target: Serine/threonine-protein kinase TAO1 (Homo sapiens) (UniProt Q7L7X3); conditions: Compound concentration 1000.0 nM
[38] = target: Tyrosine-protein kinase receptor Tie-1 (Homo sapiens) (UniProt P35590); conditions: Compound concentration 1000.0 nM
[39] = target: Serine/threonine-protein kinase tousled-like 1 (Homo sapiens) (UniProt Q9UKI8); conditions: Compound concentration 1000.0 nM
[40] = target: Non-receptor tyrosine-protein kinase TNK1 (Homo sapiens) (UniProt Q13470); conditions: Compound concentration 1000.0 nM
[41] = target: Activated CDC42 kinase 1 (Homo sapiens) (UniProt Q07912); conditions: Compound concentration 1000.0 nM
[42] = target: 5-hydroxytryptamine receptor 7 (Homo sapiens) (UniProt P34969); conditions: Compound concentration 10.0 uM
[43] = target: D(4) dopamine receptor (Homo sapiens) (UniProt P21917); conditions: Compound concentration 10.0 uM
[44] = target: Mu-type opioid receptor (Homo sapiens) (UniProt P35372); conditions: Compound concentration 10.0 uM
[45] = target: Sigma intracellular receptor 2 (Homo sapiens) (UniProt Q5BJF2); conditions: Compound concentration 10.0 uM
Chain of Sigma intracellular receptor 2 (Homo sapiens) (Q5BJF2 whole entry): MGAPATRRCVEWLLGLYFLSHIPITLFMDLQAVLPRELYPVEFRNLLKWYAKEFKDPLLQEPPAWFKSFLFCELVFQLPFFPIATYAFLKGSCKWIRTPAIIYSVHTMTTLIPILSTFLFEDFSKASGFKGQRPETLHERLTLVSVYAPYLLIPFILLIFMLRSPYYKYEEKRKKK

Chain of Epidermal growth factor receptor (Homo sapiens), P00533 [UNDEFINED MUTATION] (P00533 whole entry, looked up, change not shown): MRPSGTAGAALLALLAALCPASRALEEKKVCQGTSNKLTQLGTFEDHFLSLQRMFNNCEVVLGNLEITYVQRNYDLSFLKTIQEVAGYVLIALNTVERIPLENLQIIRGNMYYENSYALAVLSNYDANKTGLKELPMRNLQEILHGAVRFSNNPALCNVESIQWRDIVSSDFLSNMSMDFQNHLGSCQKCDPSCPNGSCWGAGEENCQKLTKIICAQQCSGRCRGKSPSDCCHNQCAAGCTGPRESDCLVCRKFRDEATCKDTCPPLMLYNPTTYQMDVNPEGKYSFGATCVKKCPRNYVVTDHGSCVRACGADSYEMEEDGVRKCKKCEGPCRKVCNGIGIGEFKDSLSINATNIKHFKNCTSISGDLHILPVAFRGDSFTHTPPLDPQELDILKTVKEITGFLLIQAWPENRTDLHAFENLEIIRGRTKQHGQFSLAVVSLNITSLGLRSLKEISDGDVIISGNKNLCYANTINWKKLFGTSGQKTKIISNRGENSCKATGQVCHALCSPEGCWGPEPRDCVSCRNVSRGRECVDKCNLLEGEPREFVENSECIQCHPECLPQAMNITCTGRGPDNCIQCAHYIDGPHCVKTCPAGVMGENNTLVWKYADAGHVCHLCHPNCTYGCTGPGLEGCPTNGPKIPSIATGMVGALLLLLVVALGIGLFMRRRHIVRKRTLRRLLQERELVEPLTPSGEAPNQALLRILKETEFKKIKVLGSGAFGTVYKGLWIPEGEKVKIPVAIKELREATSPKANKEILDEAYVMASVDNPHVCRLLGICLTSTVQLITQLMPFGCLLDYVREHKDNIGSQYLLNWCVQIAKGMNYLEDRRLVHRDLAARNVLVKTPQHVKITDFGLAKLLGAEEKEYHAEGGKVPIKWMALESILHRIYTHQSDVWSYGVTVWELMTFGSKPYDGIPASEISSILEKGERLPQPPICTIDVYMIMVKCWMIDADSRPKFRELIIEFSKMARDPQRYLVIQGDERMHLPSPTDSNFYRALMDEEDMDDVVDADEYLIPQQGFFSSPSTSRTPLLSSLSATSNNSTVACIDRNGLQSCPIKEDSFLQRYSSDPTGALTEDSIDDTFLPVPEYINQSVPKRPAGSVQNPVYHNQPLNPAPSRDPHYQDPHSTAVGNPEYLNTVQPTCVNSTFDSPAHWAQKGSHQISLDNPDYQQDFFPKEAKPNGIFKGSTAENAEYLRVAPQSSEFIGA
Chain of Hormonally up-regulated neu tumor-associated kinase (Homo sapiens) (P57058 whole entry): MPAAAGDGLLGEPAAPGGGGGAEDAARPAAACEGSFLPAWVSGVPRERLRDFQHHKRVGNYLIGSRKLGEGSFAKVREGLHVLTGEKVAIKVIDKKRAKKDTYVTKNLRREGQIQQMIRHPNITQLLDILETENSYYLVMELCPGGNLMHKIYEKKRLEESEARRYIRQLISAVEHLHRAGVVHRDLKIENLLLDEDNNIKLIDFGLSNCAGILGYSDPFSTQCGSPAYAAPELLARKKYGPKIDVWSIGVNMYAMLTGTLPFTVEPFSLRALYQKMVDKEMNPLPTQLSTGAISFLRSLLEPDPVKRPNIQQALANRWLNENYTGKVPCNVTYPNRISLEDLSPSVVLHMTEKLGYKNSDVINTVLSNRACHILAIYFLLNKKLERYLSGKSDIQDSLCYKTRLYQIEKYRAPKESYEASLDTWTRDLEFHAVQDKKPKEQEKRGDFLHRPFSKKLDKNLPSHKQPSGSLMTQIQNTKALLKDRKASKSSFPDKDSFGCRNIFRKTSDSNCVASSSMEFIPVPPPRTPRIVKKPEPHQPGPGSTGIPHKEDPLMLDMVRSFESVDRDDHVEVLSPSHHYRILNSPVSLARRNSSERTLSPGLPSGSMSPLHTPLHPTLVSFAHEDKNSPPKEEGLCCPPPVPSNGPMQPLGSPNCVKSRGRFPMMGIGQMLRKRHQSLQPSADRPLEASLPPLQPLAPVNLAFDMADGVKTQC
Chain of Beta-adrenergic receptor kinase 1 (Homo sapiens) (P25098 whole entry): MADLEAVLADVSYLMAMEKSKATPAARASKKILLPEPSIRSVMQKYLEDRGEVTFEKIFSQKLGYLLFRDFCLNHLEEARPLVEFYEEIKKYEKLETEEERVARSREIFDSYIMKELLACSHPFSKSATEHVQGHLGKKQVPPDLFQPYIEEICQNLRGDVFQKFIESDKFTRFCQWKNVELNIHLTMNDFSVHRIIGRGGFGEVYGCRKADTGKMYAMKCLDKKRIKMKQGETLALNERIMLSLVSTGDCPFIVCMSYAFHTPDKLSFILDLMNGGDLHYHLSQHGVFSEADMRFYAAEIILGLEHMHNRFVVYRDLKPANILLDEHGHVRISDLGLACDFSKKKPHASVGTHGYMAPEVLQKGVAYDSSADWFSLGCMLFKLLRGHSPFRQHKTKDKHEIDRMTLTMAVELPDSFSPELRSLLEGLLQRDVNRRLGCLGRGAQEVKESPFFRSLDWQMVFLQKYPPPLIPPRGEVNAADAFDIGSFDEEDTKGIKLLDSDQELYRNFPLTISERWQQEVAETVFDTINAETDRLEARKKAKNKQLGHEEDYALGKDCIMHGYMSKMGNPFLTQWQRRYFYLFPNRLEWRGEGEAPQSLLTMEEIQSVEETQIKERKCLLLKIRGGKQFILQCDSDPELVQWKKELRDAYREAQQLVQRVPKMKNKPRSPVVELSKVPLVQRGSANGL
Chain of Mitogen-activated protein kinase kinase kinase 12 (Homo sapiens) (Q12852 whole entry): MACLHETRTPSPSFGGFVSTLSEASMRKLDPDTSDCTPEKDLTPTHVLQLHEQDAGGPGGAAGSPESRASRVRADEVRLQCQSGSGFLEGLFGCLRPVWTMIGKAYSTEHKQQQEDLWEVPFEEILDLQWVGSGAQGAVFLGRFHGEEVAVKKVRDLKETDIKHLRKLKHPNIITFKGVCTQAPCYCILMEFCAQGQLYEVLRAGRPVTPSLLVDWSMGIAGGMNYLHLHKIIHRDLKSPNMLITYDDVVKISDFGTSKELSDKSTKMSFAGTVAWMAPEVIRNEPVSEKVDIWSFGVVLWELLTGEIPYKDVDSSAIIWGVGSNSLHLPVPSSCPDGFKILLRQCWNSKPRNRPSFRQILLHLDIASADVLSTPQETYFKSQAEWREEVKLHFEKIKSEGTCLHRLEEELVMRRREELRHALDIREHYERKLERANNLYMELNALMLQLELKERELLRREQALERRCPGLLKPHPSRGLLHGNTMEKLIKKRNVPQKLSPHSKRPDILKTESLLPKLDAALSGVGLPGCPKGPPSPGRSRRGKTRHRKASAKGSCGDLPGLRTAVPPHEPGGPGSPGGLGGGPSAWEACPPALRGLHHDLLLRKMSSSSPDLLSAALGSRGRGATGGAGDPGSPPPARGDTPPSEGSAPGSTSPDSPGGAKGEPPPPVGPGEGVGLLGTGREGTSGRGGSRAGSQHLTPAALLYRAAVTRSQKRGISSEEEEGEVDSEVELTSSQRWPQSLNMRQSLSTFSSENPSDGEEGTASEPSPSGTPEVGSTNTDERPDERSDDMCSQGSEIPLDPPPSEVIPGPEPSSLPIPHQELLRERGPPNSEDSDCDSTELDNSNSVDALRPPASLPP
Chain of Serine/threonine-protein kinase Sgk2 (Homo sapiens) (Q9HBY8 whole entry): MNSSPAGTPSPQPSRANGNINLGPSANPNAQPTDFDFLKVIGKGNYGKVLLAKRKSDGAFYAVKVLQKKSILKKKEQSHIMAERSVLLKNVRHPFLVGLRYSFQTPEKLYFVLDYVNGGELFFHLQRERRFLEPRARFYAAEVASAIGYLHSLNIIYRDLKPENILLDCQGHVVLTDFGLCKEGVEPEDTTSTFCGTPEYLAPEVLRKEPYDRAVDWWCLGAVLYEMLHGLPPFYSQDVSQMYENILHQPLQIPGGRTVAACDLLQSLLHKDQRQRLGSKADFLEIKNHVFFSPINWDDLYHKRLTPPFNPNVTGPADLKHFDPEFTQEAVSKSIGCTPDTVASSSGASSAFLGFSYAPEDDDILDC
Chain of Serine/threonine-protein kinase 33 (Homo sapiens) (Q9BYT3 whole entry, looked up): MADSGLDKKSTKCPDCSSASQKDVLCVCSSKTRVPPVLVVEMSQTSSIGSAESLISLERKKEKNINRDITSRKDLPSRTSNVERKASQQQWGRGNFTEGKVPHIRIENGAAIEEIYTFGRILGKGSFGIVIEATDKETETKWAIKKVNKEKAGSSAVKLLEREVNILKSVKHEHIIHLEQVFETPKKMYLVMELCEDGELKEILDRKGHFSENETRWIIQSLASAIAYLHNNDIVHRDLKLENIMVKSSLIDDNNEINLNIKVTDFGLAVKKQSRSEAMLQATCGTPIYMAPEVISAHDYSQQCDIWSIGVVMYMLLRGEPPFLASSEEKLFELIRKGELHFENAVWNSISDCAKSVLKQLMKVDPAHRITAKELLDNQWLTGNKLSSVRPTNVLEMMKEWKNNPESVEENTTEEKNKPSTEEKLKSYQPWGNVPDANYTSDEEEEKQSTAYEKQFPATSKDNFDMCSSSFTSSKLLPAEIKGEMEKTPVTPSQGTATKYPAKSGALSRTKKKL
Chain of Glycogen synthase kinase-3 beta (Homo sapiens) (P49841 whole entry, looked up): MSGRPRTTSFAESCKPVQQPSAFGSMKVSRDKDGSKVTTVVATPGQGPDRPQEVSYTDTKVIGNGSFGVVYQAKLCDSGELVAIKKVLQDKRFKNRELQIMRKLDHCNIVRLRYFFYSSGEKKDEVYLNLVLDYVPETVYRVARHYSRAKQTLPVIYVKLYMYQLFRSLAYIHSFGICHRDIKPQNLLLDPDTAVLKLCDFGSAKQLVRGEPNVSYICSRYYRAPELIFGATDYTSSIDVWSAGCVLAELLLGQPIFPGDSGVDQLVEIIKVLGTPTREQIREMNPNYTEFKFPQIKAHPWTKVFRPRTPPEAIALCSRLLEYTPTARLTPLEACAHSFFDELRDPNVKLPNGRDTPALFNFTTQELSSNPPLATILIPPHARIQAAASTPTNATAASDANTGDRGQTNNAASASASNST

In the case of `CN([C@@H]1CCc2c(CC(=O)O)c3cc(S(C)(=O)=O)ccc3n2C1)S(=O)(=O)c1ccc(F)cc1`, the residual activity [1] is reported as 55%, the residual activity [2] is reported as 100% and the residual activity [3] is reported as 89%. The residual activity [4] was 86%, the residual activity [5] was 100% and the residual activity [6] was 100%. It also gave a residual activity [7] of 100%, a residual activity [8] of 100% and a residual activity [9] of 100%. The residual activity [10] was 90%, the residual activity [11] was 100% and the residual activity [12] was 95%. The residual activity [13] was 100%, the residual activity [14] was 100% and the residual activity [15] was 99%. The residual activity [16] was 88%, the residual activity [17] was 100% and the residual activity [18] was 84%. For the same compound, the residual activity [19] was 85%, the residual activity [20] was 87% and the residual activity [21] was 100%. The residual activity [22] was 100%, the residual activity [23] was 100% and the residual activity [24] was 100%. The residual activity [25] was 85%, the residual activity [26] was 81% and the residual activity [27] was 76%. For the same compound, the residual activity [28] was 100%, the residual activity [29] was 100% and the residual activity [30] was 100%. It also gave a residual activity [31] of 100%, a residual activity [32] of 96% and a residual activity [33] of 6%. For the same compound, the residual activity [34] was 100%, the residual activity [35] was 88% and the residual activity [36] was 99%. The residual activity [37] was 95%, the residual activity [38] was 95% and the residual activity [39] was 100%. For the same compound, the residual activity [40] was 91%, the residual activity [41] was 92% and the inhibition [42] was -3.44%. The inhibition [43] was 2.8%, the inhibition [44] was 7.34% and the inhibition [45] was -9.3%.
In the case of `CN([C@@H]1CCc2c(CC(=O)O)c3ccccc3n2C1)S(=O)(=O)c1ccc(F)cc1` [MK-7246], the residual activity [1] is reported as 100%, the residual activity [2] is reported as 100% and the residual activity [3] is reported as 74%. For the same compound, the residual activity [4] was 79%, the residual activity [5] was 99% and the residual activity [6] was 91%. The residual activity [7] was 100%, the residual activity [8] was 100% and the residual activity [9] was 100%. For the same compound, the residual activity [10] was 100%, the residual activity [11] was 100% and the residual activity [12] was 95%. The residual activity [13] was 100%, the residual activity [14] was 100% and the residual activity [15] was 91%. It also gave a residual activity [16] of 100%, a residual activity [17] of 100% and a residual activity [18] of 86%. It also gave a residual activity [19] of 93%, a residual activity [20] of 95% and a residual activity [21] of 99%. It also gave a residual activity [22] of 100%, a residual activity [23] of 100% and a residual activity [24] of 100%. The residual activity [25] was 100%, the residual activity [26] was 100% and the residual activity [27] was 100%. For the same compound, the residual activity [28] was 100%, the residual activity [29] was 94% and the residual activity [30] was 100%. The residual activity [31] was 98%, the residual activity [32] was 90% and the residual activity [33] was 34%. It also gave a residual activity [34] of 100%, a residual activity [35] of 81% and a residual activity [36] of 100%. It also gave a residual activity [37] of 93%, a residual activity [38] of 89% and a residual activity [39] of 100%. It also gave a residual activity [40] of 99%, a residual activity [41] of 100% and an inhibition [42] of 4.11%. For the same compound, the inhibition [43] was 3.14%, the inhibition [44] was 1.33% and the inhibition [45] was -9.73%.
